Laboratory results reported in BigSolDB 2.1.

O=C(O)c1cccnc1Nc1cccc(C(F)(F)F)c1
solubility (mole fraction)
Settings	288.15 K	293.15 K	298.15 K	303.15 K	308.15 K	313.15 K	318.15 K	323.15 K	328.15 K
in MTBE	0.0428	0.0471	0.0505	0.0549	0.0591	0.0663	0.073	0.08	0.0854
in acetone	0.0273	0.0296	0.0315	0.034	0.037	0.0418	0.048	0.053	0.0572
in acetonitrile	–	0.00125	0.0018	0.00235	0.00319	0.00437	0.00595	0.00745	0.00898
in cyclohexane	0.00268	0.00379	0.00512	0.00674	0.00887	0.0114	0.0137	0.0158	0.0182
in diisopropyl ether	0.00814	0.0119	0.0146	0.0183	0.022	0.0262	0.0303	0.0357	0.0424
in ethanol	0.00748	0.00873	0.00935	0.0113	0.0133	0.0153	0.0177	0.0197	0.0211
in ethyl acetate	0.0243	0.0261	0.0279	0.0308	0.0346	0.0393	0.0439	0.0494	0.0544
in isopropanol	0.00751	0.00844	0.00941	0.0107	0.0131	0.0152	0.0179	0.0209	0.0235
in isopropyl acetate	0.0228	0.0264	0.029	0.0324	0.0372	0.0435	0.05	0.0564	0.0637
in methanol	0.00655	0.00766	0.00862	0.00967	0.0107	0.0118	0.0135	0.0151	0.0171
in n-heptane	0.00171	0.00276	0.00404	0.00562	0.00726	0.00951	0.0121	0.0145	0.0172
in n-hexane	0.00145	0.00256	0.00382	0.00539	0.00678	0.00896	0.011	0.0131	0.0155
in n-propanol	0.00879	0.00999	0.011	0.0129	0.0147	0.0174	0.0202	0.0232	0.0266
in toluene	–	0.00154	0.00242	0.00395	0.00532	0.0073	0.00991	0.0133	0.0172
